Source: PubChem BioAssay (NCI)
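Following 48 hours of exposure in 96-well plates, responses at five concentrations were used to interpolate endpoints linearly. At the TGI there is no net growth.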

Columns and labels:
Assay in all cases: inhibition of tumour cell growth, NCI panel, 48 h
786-0 renal = tested on: 786-0 renal
ACHN renal = tested on: ACHN renal
HCT-15 colon = tested on: HCT-15 colon
HOP-92 NSCLC = tested on: HOP-92 NSCLC
HT29 colon = tested on: HT29 colon
MCF7 breast = tested on: MCF7 breast
MDA-MB-231 breast = tested on: MDA-MB-231 breast
MDA-N = tested on: MDA-N
MOLT-4 leukemia = tested on: MOLT-4 leukemia
NCI-H23 lung = tested on: NCI-H23 lung
OVCAR-4 ovarian = tested on: OVCAR-4 ovarian
OVCAR-5 ovarian = tested on: OVCAR-5 ovarian
OVCAR-8 ovarian = tested on: OVCAR-8 ovarian
RPMI-8226 leukemia = tested on: RPMI-8226 leukemia
SK-MEL-5 melanoma = tested on: SK-MEL-5 melanoma
SN12C renal = tested on: SN12C renal
SNB-75 CNS = tested on: SNB-75 CNS
SW-620 colon = tested on: SW-620 colon
UO-31 renal = tested on: UO-31 renal

SMILES | TGI (786-0 renal) | TGI (ACHN renal) | TGI (HCT-15 colon) | TGI (HOP-92 NSCLC) | TGI (HT29 colon) | TGI (MCF7 breast) | TGI (MDA-MB-231 breast) | TGI (MDA-N) | TGI (MOLT-4 leukemia) | TGI (NCI-H23 lung) | TGI (OVCAR-4 ovarian) | TGI (OVCAR-5 ovarian) | TGI (OVCAR-8 ovarian) | TGI (RPMI-8226 leukemia) | TGI (SK-MEL-5 melanoma) | TGI (SN12C renal) | TGI (SNB-75 CNS) | TGI (SW-620 colon) | TGI (UO-31 renal)
COc1cc(/C=C2\C[C@H]3[C@@H]4CC=C5C[C@@H](O)CC[C@]5(C)[C@H]4CC[C@]3(C)C2=O)cc(OC)c1OC | 89.5 µM | > 100 µM | > 100 µM | > 100 µM | 47.7 µM | > 100 µM | 81.1 µM | 87.1 µM | 68.4 µM | > 100 µM | 96.6 µM | > 100 µM | > 100 µM | 45.4 µM | 31.9 µM | > 100 µM | 96.3 µM | > 100 µM | > 100 µM
COc1ccc2c(c1)CN1C(=N2)CSC1c1cc([N+](=O)[O-])ccc1Cl (stereo unspecified) | > 100 µM | > 100 µM | > 100 µM | > 100 µM | 75.8 µM | > 100 µM | > 100 µM | > 100 µM | > 100 µM | > 100 µM | > 100 µM | > 100 µM | > 100 µM | 72.3 µM | > 100 µM | > 100 µM | > 100 µM | > 100 µM | > 100 µM
CC1=C(C(N)=O)C(c2ccncc2)C(C#N)=C2SCC(=O)N12 (stereo unspecified) | > 100 µM | > 100 µM | > 100 µM | > 100 µM | > 100 µM | > 100 µM | > 100 µM | > 100 µM | > 100 µM | > 100 µM | > 100 µM | > 100 µM | > 100 µM | > 100 µM | > 100 µM | > 100 µM | > 100 µM | > 100 µM | > 100 µM
C#CCn1ncc2c(SCc3ccccc3)ncnc21 | > 100 µM | > 100 µM | > 100 µM | > 100 µM | > 100 µM | > 100 µM | > 100 µM | > 100 µM | 39 µM | > 100 µM | > 100 µM | > 100 µM | > 100 µM | > 100 µM | > 100 µM | > 100 µM | > 100 µM | > 100 µM | > 100 µM
